The nature of series [1]: Thioflavin T (ThT) fibrillation screening assay. Particulars: for Peptide Fibrillation Thioflavin T ΔFluorescence 18 h Assay Score: Table 4.4: acylation linkers, backbone KBP-066, tier from 18 h fluorescence signal, 37° C. It is filed as physicochemical. Here is the method: Thioflavin T (T3516, Sigma). Assay stock ThT is prepared as a 10 mM solution in 5 mM sodium phosphate pH 7.2. Aliquots are stored, protected from light, at −20° C. Stock ThT is thawed and diluted just prior to use.
For the tested calcitonin mimetics (hereinafter referred to as “acylated KBPs” or simply “KBPs”), final buffer conditions are 10 mM Tris-HCl pH 7.5.
The final peptide concentration in the wells should be 100-200 μM, and the final ThT concentration should be 4 μM. ThT is added last (10 μL).
Thioflavin T assays were also conducted. Thioflavin T (ThT) is a dye widely used for the detection of amyloid fibrils. In the presence of fibrils, ThT has an excitation maximum at 450 nm and enhanced emission at 480 nm, whereas ThT is essentially non-fluorescent at these wavelengths when not bound to amyloid fibrils.
Thus, ThT in combination with a fluorescent plate reader is an ideal tool for screening large numbers of in vitro samples for the presence of amyloid fibrils. […]
The plate is loaded into a fluorescent plate reader, such as a SpectraMax with SoftMax Pro 7.0.2 software, and the template set to 37° C. with excitation wavelength at 450 nm and emission wavelength at 480 nm.
Plate reader should measure fluorescence every 10 minutes for 24 hours with a five-second plate shake before the first read and a three-second plate shake before all other reads. Alternatively, the plate is read after the following incubation times; 0, 1, 2, 4 and 24 hours.
Plot relative fluorescence units (RFU) as a function of time. Fibrillation is determined as an increase in RFU over baseline as described by Nielsen et. al.
In this filing four fibrillations tiers have been defined based on the 18 h fluorescence signal to get a single output that reflects the peptides fibrillation potential: None=<1000 RFU, Low=1000-3000 RFU, Medium=3000-10000, High=>10000

For the next series, the system named is 20 week HFD SD rats. The series is described as follows: Single dose food intake and body weight test in HFD SD rats (Examples 3, 4, 5, 8, 10, 12). It is filed as in vivo, rat. Particulars: for Food Intake ΔFOOD Sustained Attenuation (4 nmol/kg) Hours: Table 4.4: acylation linkers, backbone KBP-066, single s.c. dose 4 nmol/kg, HFD SD rats; for Food Intake ΔFOOD Sustained Attenuation (36 nmol/kg) Hours: 36 nmol/kg single dose. The text has this: In the animal model studies, 12 week healthy Sprague Dawley (SD) rats were used to assess the potency of the acylated KBPs. In some examples they were fed normal chow during prior and during the tests, whereas in other examples, the 12 week healthy SD rats were fed high fat diet (HFD) for eight weeks prior to the test and for the duration of the test.
Rats were single caged four days prior to the test. Rats were randomized by weight into eleven groups (Vehicle (0.9% NaCl), KBPs (doses: 36 nmol/kg (150-157 μg/kg)). They were fasted overnight and then treated with a single dose of peptide or vehicle in the morning using subcutaneous administration. Food intake was monitored in the following intervals (0-4 hours, 4-24 hours, 24-48 hours . . . 144-168 hours). Body weight was measured at baseline and every 24 hours post s.c injection.
Rats were single caged four days prior to the test. Rats were randomized by weight into eleven groups (Vehicle (0.9% NaCl), KBPs (doses: 4 nmol/kg (^17 μg/kg), 12 nmol/kg (^50 μg/kg) or 36 nmol/kg ([…])). They were fasted overnight and then treated with a single dose of peptide or vehicle in the morning using subcutaneous administration. Food intake was monitored in the following intervals (0-4 hours, 4-24 hours, 24-48 hours . . . 144-168 hours). Body weight was measured at baseline and every 24 hours post s.c injection.
Single high dose effect of A11/3 acylated variants of KBP-042 and KBP-066 on food intake and body weight in 20 week HFD SD rats. Rats were single caged four days prior to the test. Rats were randomized by weight into eleven groups (Vehicle (0.9% NaCl), KBPs (doses: 300 nmol/kg (^1000 μg/kg)).
The rats were fasted overnight and then treated with a single dose of peptide or vehicle in the morning using subcutaneous administration. Food intake was monitored in the following intervals (0-4 hours, 4-24 hours, 24-48 hours . . . […]). Body weight was measured at baseline and every 24 hours post s.c injection.
Rats were single caged four days prior to the test. Rats were randomized by weight into eight groups (Vehicle (0.9% NaCl), KBPs (doses: 3 nmol/kg (^10-11 μg/kg)). They were fasted overnight and then treated with a single dose of peptide or vehicle in the morning using subcutaneous administration. Food intake was monitored in the following intervals (0-4 hours, 4-24 hours, 24-48 hours, 48-72 hours, and 72-96 hours). Body weight was measured at baseline and at 4 hour, 24 hours, 48 hours, 72 hours and 96 hours post s.c injection.
Rats were single caged four days prior to the test. Rats were randomized by weight into eight groups (Vehicle (0.9% NaCl), KBPs (doses: 4 nmol/kg (^10-11 μg/kg)). They were fasted overnight and then treated with a single dose of peptide or vehicle in the morning using subcutaneous administration. Food intake was monitored in the following intervals (0-4 hours, 4-24 hours, 24-48 hours, 48-72 hours, and 72-96 hours). Body weight was measured at baseline and at 4 hour, 24 hours, 48 hours, 72 hours and 96 hours post s.c. injection. Two backbones were tested, KBP-066 and KBP-021.
Rats were single caged four days prior to the test. Rats were randomized by weight into eight groups (Vehicle (0.9% NaCl), KBPs (doses: 4 nmol/kg (^13-14 μg/kg)). They were fasted overnight and then treated with a single dose of peptide or vehicle in the morning using subcutaneous administration. Food intake was monitored in the following intervals (0-4 hours, 4-24 hours, 24-48 hours, 48-72 hours, and 72-96 hours). Body weight was measured at baseline and at 4 hour, 24 hours, 48 hours, 72 hours and 96 hours post s.c injection.

The target of series [2] is T1, Calcitonin Receptor (CTR) (Homo sapiens (Human), UniProt P30988).
T1 sequence: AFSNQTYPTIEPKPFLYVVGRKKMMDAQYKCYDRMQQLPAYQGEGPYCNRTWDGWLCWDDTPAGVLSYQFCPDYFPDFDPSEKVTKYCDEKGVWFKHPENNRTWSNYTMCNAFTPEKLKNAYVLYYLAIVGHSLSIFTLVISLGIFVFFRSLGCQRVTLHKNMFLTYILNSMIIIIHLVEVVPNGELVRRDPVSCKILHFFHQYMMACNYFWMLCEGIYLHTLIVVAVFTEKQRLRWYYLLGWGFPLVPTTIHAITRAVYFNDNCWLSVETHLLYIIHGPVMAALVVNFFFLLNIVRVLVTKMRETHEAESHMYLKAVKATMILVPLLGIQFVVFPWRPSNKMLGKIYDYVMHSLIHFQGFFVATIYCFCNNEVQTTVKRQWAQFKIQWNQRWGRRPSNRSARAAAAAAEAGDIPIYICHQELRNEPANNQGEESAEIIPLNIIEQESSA
The series is described as follows: cell-based or functional assay.

In a further series the target is T2, Amylin Receptor (AMY-R) (Homo sapiens (Human), UniProt P30988).
T2 sequence 1: T1 sequence
T2 sequence 2: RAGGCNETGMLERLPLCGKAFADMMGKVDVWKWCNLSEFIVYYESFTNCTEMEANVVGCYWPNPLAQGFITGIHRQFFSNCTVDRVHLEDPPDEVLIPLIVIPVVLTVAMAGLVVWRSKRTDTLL
The series is described as follows: cell-based or functional assay.

Numbered stars: 1 amine (or outer) side, 2 acyl side, 3 side chain; on linkers, the order of the positions; unused ones are H or OH. Bridge positions count the residues as written; N and C are the ends. Square brackets hold non-standard residues; d marks the D form. Side chains are listed from the residue outwards. Ends that are not written are not given here. Peptide text beside a SMILES is read from it. * marks the point of attachment. C18 diacid = O=C(O)CCCCCCCCCCCCCCCCC(=O)*; γGlu = O=C(O)[C@H](CCC(=O)[*:2])N[*:1]; AEEA = NCCOCCOCC(=O)O; Aib = CC(C)(N)C(=O)O

As for `CC(=O)N[C@H]1CSSC[C@@H](C(=O)NC(C)(C)C(=O)N[C@@H](CC(C)C)C(=O)NCC(=O)N[C@@H](CCCCNC(=O)COCCOCCNC(=O)COCCOCCNC(=O)COCCOCCNC(=O)CC[C@H](NC(=O)CCCCCCCCCCCCCCCCC(=O)O)C(=O)O)C(=O)N[C@@H](CC(C)C)C(=O)N[C@@H](CO)C(=O)N[C@@H](CCC(N)=O)C(=O)N[C@@H](CC(=O)O)C(=O)N[C@@H](CC(C)C)C(=O)N[C@@H](Cc2c[nH]cn2)C(=O)N[C@@H](CCCNC(=N)N)C(=O)N[C@@H](CC(C)C)C(=O)N[C@@H](CCC(N)=O)C(=O)N[C@H](C(=O)N[C@@H](Cc2ccc(O)cc2)C(=O)N2CCC[C@H]2C(=O)N[C@@H](CCCCN)C(=O)N[C@H](C(=O)N[C@@H](CC(=O)O)C(=O)N[C@H](C(=O)NCC(=O)N[C@@H](C)C(=O)N[C@@H](CC(N)=O)C(=O)N[C@@H](C)C(=O)N2CCC[C@H]2C(N)=O)C(C)C)[C@@H](C)O)[C@@H](C)O)NC(=O)[C@H]([C@@H](C)O)NC(=O)[C@H](CO)NC(=O)[C@H](CC(C)C)NC(=O)[C@H](CC(N)=O)NC(=O)[C@H](CO)NC1=O` [KBP-385] (Ac-CSNLSTC[Aib]LGK([AEEA-AEEA-AEEA-γGlu-C18 diacid])LSQDLHRLQTYPKTDVGANAP-NH2; disulfide 1-7 (inferred)), in series [1], the “Peptide Fibrillation Thioflavin T ΔFluorescence 18 h Assay Score” value is on record as “None (None=<1000 RFU)”. The “Food Intake ΔFOOD Sustained Attenuation (4 nmol/kg) Hours” value in the series on 20 week HFD SD rats is listed as 72 h.
With “KBP-377: KBP-089 core, A32/3 acylation (Ac-CSNLSTCMLGRLSQDLHRLQTYPKTDVGANAPK; not fully specified (residue 33); ends and bridges not checked)”, the “Food Intake ΔFOOD Sustained Attenuation (36 nmol/kg) Hours” value in the series on 20 week HFD SD rats is 72 h.
`CC(=O)N[C@H]1CSSC[C@@H](C(=O)NC(C)(C)C(=O)N[C@@H](CC(C)C)C(=O)NCC(=O)N[C@@H](CCCCNC(=O)COCCOCCNC(=O)CC[C@H](NC(=O)CCCCCCCCCCCCCCCCC(=O)O)C(=O)O)C(=O)N[C@@H](CC(C)C)C(=O)N[C@@H](CO)C(=O)N[C@@H](CCC(N)=O)C(=O)N[C@@H](CC(=O)O)C(=O)N[C@@H](CC(C)C)C(=O)N[C@@H](Cc2c[nH]cn2)C(=O)N[C@@H](CCCNC(=N)N)C(=O)N[C@@H](CC(C)C)C(=O)N[C@@H](CCC(N)=O)C(=O)N[C@H](C(=O)N[C@@H](Cc2ccc(O)cc2)C(=O)N2CCC[C@H]2C(=O)N[C@@H](CCCCN)C(=O)N[C@H](C(=O)N[C@@H](CC(=O)O)C(=O)N[C@H](C(=O)NCC(=O)N[C@@H](C)C(=O)N[C@@H](CC(N)=O)C(=O)N[C@@H](C)C(=O)N2CCC[C@H]2C(N)=O)C(C)C)[C@@H](C)O)[C@@H](C)O)NC(=O)[C@H]([C@@H](C)O)NC(=O)[C@H](CO)NC(=O)[C@H](CC(C)C)NC(=O)[C@H](CC(N)=O)NC(=O)[C@H](CO)NC1=O` [KBP-384] (Ac-CSNLSTC[Aib]LGK([AEEA-γGlu-C18 diacid])LSQDLHRLQTYPKTDVGANAP-NH2; disulfide 1-7 (inferred)): the “fibrillation tier (score in the ThT assay)” value in series [1] (18 h fluorescence signal) is “low”. Moreover, the “Peptide Fibrillation Thioflavin T ΔFluorescence 18 h Assay Score” value in series [1] is “Low (Low=1000-3000 RFU)”. For the same molecule, the “Food Intake ΔFOOD Sustained Attenuation (4 nmol/kg) Hours” value in the series with 20 week HFD SD rats was determined as 72 h.
Turning to “KBP-372: KBP-042 core, A11/3 acylation (Ac-CSNLSTCVLGKLSQELHKLQTYPRTDVGANAP-NH2; not fully specified (residue 11); ends and bridges not checked)”, the “Food Intake ΔFOOD Sustained Attenuation (36 nmol/kg) Hours” value in the series on 20 week HFD SD rats is reported as 96 h. The “protracted in vivo efficacy, high dose test (in words)” value with 20 week HFD SD rats (single s.c. dose 300 nmol/kg) is “superior protracted in vivo efficacy that lasted for days”.
Consider “KBP-374: KBP-042 core with added C-terminal acylated lysine (A32 type, Table 1) (Ac-CSNLSTCVLGKLSQELHKLQTYPRTDVGANAPK; not fully specified (residue 33); ends and bridges not checked)”, for which, in the series on 20 week HFD SD rats, the “Food Intake ΔFOOD Sustained Attenuation (36 nmol/kg) Hours” value worked out at 72 h.
Take Ac-CSNLSTCMLGRLSQDLHRLQTYPKTDVGANAPK (not fully specified (residue 33); ends and bridges not checked) [KBP-377]: in series [2], the “β-arrestin Fold Recruitment EC50 values (10^-9 M)” value is 66 nM and the “β-arrestin Prolonged CTR response (10 nM) tAUC value 0-72 h” value (“β-arrestin Prolonged CTR response” below) worked out at 1400. For the same molecule, the “β-arrestin Fold Recruitment EC50 values (10^-09 M)” value with Amylin Receptor (AMY-R) is 73.1 nM.
For the molecule Ac-CSNLSTCVLGKLSQELHKLQTYPRTDVGANAP-NH2 (not fully specified (residue 11); ends and bridges not checked) [KBP-372], in series [2], the “β-arrestin Fold Recruitment EC50 values (10^-9 M)” value is 7.8 nM and the “β-arrestin Prolonged CTR response” value was 1300. Moreover, the “β-arrestin Fold Recruitment EC50 values (10^-09 M)” value in the series with Amylin Receptor (AMY-R) worked out at 45.6 nM.
Ac-CSNLSTCVLGKLSQELHKLQTYPRTDVGANAPK (not fully specified (residue 33); ends and bridges not checked) [KBP-374]: in series [2], the “β-arrestin Fold Recruitment EC50 values (10^-9 M)” value was determined as 49.2 nM and the “β-arrestin Prolonged CTR response” value was determined as 1070. Besides, the “β-arrestin Fold Recruitment EC50 values (10^-09 M)” value in the series with Amylin Receptor (AMY-R) was 151 nM.

Source of the values: patent publication US20220380432A1, “Acylated Calcitonin Mimetics” (KeyBioscience AG, priority 2018, published 2022).
